Assay results published in PubChem BioAssay AID1982 (Sanford-Burnham Center for Chemical Genomics, 2009).
Active and inactive are the calls of the source. No rule for the calls is given here.

What was measured:
Test in all cases: kinase panel binding selectivity, selectivity assay, biochemical, KINOMEscan (AID 1982)
[1] = biological target: NT-3 growth factor receptor (Homo sapiens) (UniProt Q16288); settings: KINOMEscan 353-kinase binding panel, qPCR; TRKC; at 10 µM; active compounds read low
[2] = biological target: Casein kinase II subunit alpha (Homo sapiens) (UniProt P68400); settings: KINOMEscan 353-kinase binding panel, qPCR; CSNK2A1; at 10 µM; active compounds read low
[3] = biological target: Tyrosine-protein kinase Lyn (Homo sapiens) (UniProt P07948); settings: KINOMEscan 353-kinase binding panel, qPCR, at 10 µM, active compounds read low
MLCK = settings: KINOMEscan 353-kinase binding panel, qPCR, at 10 µM, active compounds read low
SRPK3 = settings: KINOMEscan 353-kinase binding panel, qPCR, at 10 µM, active compounds read low
PRKCE = settings: KINOMEscan 353-kinase binding panel, qPCR, at 10 µM, active compounds read low
MST1 = settings: KINOMEscan 353-kinase binding panel, qPCR, at 10 µM, active compounds read low
PIK3CD = settings: KINOMEscan 353-kinase binding panel, qPCR, at 10 µM, active compounds read low
RIOK1 = settings: KINOMEscan 353-kinase binding panel, qPCR, at 10 µM, active compounds read low
[4] = biological target: Serine/threonine-protein kinase N2 (Homo sapiens) (UniProt Q16513); settings: KINOMEscan 353-kinase binding panel, qPCR; PKN2; at 10 µM; active compounds read low
[5] = biological target: Tyrosine-protein kinase Blk (Homo sapiens) (UniProt P51451); settings: KINOMEscan 353-kinase binding panel, qPCR, at 10 µM, active compounds read low
Chain of Tyrosine-protein kinase Blk (Homo sapiens) (P51451 whole entry, looked up): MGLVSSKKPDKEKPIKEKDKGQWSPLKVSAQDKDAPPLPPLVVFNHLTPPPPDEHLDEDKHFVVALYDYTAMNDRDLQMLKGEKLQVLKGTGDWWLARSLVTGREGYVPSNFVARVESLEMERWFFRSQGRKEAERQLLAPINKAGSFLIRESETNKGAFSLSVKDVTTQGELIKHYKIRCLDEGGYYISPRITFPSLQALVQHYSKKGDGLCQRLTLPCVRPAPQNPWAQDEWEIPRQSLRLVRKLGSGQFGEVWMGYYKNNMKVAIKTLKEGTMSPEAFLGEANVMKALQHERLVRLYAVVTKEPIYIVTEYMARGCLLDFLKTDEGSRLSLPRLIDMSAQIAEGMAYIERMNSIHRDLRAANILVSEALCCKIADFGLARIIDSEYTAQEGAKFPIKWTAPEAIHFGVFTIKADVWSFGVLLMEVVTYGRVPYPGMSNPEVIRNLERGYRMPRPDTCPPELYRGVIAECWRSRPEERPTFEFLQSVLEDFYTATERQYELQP

[6] = biological target: STE20-like serine/threonine-protein kinase (Homo sapiens) (UniProt Q9H2G2); settings: KINOMEscan 353-kinase binding panel, qPCR; SLK; at 10 µM; active compounds read low
BMPR2 = settings: KINOMEscan 353-kinase binding panel, qPCR, at 10 µM, active compounds read low
CDK3 = settings: KINOMEscan 353-kinase binding panel, qPCR, at 10 µM, active compounds read low
[7] = biological target: 3-phosphoinositide-dependent protein kinase 1 (Homo sapiens) (UniProt O15530); settings: KINOMEscan 353-kinase binding panel, qPCR; PDPK1; at 10 µM; active compounds read low
PIK3CG = settings: KINOMEscan 353-kinase binding panel, qPCR, at 10 µM, active compounds read low
CSNK1A1L = settings: KINOMEscan 353-kinase binding panel, qPCR, at 10 µM, active compounds read low
EPHB2 = settings: KINOMEscan 353-kinase binding panel, qPCR, at 10 µM, active compounds read low
[8] = biological target: Tyrosine-protein kinase Fes/Fps (Homo sapiens) (UniProt P07332); settings: KINOMEscan 353-kinase binding panel, qPCR, at 10 µM, active compounds read low
[9] = biological target: Cyclin-dependent kinase 9 (Homo sapiens) (UniProt P50750); settings: KINOMEscan 353-kinase binding panel, qPCR; CDK9; at 10 µM; active compounds read low
Chain of Cyclin-dependent kinase 9 (Homo sapiens) (P50750 whole entry, looked up): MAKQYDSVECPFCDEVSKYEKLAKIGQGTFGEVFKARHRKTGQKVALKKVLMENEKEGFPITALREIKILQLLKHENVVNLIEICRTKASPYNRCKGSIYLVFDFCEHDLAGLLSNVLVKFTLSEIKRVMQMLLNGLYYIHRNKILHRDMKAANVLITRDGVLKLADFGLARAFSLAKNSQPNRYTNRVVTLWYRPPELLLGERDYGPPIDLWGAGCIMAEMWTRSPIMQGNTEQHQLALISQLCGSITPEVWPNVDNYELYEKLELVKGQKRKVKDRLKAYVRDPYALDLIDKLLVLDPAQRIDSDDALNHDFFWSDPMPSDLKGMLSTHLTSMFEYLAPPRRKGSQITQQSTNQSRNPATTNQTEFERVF

[10] = biological target: Serine/threonine-protein kinase PAK 1 (Homo sapiens) (UniProt Q13153); settings: KINOMEscan 353-kinase binding panel, qPCR; PAK1; at 10 µM; active compounds read low
[11] = biological target: Serine/threonine-protein kinase pim-2 (Homo sapiens) (UniProt Q9P1W9); settings: KINOMEscan 353-kinase binding panel, qPCR; PIM2; at 10 µM; active compounds read low
MAP4K1 = settings: KINOMEscan 353-kinase binding panel, qPCR, at 10 µM, active compounds read low
CSK = settings: KINOMEscan 353-kinase binding panel, qPCR, at 10 µM, active compounds read low
AAK1 = settings: KINOMEscan 353-kinase binding panel, qPCR, at 10 µM, active compounds read low
MAP3K3 = settings: KINOMEscan 353-kinase binding panel, qPCR, at 10 µM, active compounds read low
[12] = biological target: Serine/threonine-protein kinase Nek2 (Homo sapiens) (UniProt P51955); settings: KINOMEscan 353-kinase binding panel, qPCR, at 10 µM, active compounds read low
DDR2 = settings: KINOMEscan 353-kinase binding panel, qPCR, at 10 µM, active compounds read low
NEK6 = settings: KINOMEscan 353-kinase binding panel, qPCR, at 10 µM, active compounds read low
[13] = biological target: Serine/threonine-protein kinase D1 (Homo sapiens) (UniProt Q15139); settings: KINOMEscan 353-kinase binding panel, qPCR; PRKD1; at 10 µM; active compounds read low
Chain of Serine/threonine-protein kinase D1 (Homo sapiens) (Q15139 whole entry, looked up): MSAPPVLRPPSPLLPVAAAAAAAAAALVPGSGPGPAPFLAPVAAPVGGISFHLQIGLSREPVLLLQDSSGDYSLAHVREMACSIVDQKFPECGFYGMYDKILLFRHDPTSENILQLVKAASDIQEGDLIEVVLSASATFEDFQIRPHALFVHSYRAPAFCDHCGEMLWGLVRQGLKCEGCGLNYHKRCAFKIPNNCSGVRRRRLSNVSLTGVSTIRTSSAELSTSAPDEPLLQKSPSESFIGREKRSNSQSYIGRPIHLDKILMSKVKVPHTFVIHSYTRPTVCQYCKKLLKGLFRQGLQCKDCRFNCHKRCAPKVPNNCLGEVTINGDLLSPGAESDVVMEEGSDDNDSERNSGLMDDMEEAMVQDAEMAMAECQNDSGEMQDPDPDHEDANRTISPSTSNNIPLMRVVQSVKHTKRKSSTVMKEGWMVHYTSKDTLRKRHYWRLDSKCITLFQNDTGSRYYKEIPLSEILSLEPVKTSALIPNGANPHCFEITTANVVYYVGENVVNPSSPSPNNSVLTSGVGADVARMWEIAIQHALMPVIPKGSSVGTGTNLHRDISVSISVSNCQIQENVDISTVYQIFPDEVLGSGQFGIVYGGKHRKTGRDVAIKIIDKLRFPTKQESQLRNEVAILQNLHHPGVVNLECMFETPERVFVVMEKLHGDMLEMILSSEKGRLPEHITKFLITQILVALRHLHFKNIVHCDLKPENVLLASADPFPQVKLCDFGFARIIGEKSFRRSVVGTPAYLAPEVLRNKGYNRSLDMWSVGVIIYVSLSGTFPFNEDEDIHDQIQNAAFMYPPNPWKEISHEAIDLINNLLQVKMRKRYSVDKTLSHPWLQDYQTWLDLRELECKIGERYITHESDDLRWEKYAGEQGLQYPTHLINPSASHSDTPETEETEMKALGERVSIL

ABL2 = settings: KINOMEscan 353-kinase binding panel, qPCR, at 10 µM, active compounds read low
[14] = biological target: Serine/threonine-protein kinase DCLK1 (Homo sapiens) (UniProt O15075); settings: KINOMEscan 353-kinase binding panel, qPCR; DCAMKL1; at 10 µM; active compounds read low
Chain of Serine/threonine-protein kinase DCLK1 (Homo sapiens) (O15075 whole entry, looked up): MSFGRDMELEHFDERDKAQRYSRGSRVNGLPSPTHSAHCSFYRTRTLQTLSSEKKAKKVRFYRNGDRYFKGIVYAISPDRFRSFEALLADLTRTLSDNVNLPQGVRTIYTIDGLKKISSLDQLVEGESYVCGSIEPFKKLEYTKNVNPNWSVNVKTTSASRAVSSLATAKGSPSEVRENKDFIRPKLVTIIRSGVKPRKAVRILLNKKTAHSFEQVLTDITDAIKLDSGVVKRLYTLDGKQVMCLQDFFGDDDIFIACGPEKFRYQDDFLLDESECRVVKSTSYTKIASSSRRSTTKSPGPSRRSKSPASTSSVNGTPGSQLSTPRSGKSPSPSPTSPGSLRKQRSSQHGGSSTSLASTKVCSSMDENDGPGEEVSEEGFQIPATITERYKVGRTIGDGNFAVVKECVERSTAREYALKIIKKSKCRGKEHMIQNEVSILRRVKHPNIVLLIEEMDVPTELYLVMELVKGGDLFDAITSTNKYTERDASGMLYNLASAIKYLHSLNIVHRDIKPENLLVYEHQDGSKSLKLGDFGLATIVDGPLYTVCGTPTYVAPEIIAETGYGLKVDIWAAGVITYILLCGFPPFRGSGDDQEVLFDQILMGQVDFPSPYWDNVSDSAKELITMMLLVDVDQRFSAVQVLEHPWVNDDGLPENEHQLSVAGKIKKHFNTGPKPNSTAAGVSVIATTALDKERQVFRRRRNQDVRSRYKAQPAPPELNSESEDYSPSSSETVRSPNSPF

[15] = biological target: Fibroblast growth factor receptor 3 (Homo sapiens) (UniProt P22607); settings: KINOMEscan 353-kinase binding panel, qPCR, at 10 µM, active compounds read low
Chain of Fibroblast growth factor receptor 3 (Homo sapiens) (P22607 whole entry, looked up): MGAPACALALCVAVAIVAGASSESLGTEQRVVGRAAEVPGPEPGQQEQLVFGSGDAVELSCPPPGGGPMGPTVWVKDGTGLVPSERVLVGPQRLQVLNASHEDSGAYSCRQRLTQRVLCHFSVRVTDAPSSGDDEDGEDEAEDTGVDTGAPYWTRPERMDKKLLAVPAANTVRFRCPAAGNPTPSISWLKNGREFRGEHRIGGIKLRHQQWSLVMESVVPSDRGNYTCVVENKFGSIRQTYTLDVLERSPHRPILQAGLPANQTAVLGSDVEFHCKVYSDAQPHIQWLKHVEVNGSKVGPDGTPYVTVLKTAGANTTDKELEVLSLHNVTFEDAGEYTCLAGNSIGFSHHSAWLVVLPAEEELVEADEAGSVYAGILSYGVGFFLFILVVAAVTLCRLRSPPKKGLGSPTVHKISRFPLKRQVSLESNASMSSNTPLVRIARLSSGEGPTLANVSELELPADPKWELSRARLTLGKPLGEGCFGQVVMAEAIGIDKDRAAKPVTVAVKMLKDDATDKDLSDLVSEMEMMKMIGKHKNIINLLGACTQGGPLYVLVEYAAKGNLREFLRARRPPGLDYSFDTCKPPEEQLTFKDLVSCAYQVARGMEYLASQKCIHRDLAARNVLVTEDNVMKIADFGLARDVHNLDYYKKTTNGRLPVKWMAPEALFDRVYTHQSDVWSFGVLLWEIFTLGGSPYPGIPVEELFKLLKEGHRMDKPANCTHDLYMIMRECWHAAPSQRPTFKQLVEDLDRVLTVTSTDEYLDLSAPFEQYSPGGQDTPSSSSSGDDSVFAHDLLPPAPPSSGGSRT

[16] = biological target: Mitogen-activated protein kinase 9 (Homo sapiens) (UniProt P45984); settings: KINOMEscan 353-kinase binding panel, qPCR; JNK2; at 10 µM; active compounds read low
Chain of Mitogen-activated protein kinase 9 (Homo sapiens) (P45984 whole entry, looked up): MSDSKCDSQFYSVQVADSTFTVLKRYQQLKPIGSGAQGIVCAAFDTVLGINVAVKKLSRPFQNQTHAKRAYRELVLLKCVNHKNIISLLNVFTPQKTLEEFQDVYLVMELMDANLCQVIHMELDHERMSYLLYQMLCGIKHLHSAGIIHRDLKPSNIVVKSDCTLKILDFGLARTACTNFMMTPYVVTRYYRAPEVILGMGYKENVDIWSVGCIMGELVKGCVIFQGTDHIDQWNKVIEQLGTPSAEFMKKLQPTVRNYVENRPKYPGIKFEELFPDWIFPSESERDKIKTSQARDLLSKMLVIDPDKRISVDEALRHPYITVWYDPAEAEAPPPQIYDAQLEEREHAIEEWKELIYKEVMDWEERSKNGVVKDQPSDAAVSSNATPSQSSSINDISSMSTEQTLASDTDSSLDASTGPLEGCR

[17] = biological target: Death-associated protein kinase 3 (Homo sapiens) (UniProt O43293); settings: KINOMEscan 353-kinase binding panel, qPCR; DAPK3; at 10 µM; active compounds read low
Chain of Death-associated protein kinase 3 (Homo sapiens) (O43293 whole entry, looked up): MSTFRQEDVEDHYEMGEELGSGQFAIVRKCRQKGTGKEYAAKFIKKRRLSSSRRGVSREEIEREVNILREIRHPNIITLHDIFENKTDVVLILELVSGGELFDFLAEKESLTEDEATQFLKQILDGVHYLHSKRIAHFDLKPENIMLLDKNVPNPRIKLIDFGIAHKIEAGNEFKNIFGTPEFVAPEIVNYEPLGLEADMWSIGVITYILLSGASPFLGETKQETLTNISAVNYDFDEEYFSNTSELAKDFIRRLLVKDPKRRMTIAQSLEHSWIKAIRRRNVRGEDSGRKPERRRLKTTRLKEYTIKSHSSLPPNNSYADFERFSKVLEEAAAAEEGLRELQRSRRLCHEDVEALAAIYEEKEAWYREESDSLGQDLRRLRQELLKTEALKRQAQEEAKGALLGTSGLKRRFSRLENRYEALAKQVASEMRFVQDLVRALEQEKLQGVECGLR

Measured: percent of control binding

Chain of NT-3 growth factor receptor (Homo sapiens) (Q16288 whole entry, looked up): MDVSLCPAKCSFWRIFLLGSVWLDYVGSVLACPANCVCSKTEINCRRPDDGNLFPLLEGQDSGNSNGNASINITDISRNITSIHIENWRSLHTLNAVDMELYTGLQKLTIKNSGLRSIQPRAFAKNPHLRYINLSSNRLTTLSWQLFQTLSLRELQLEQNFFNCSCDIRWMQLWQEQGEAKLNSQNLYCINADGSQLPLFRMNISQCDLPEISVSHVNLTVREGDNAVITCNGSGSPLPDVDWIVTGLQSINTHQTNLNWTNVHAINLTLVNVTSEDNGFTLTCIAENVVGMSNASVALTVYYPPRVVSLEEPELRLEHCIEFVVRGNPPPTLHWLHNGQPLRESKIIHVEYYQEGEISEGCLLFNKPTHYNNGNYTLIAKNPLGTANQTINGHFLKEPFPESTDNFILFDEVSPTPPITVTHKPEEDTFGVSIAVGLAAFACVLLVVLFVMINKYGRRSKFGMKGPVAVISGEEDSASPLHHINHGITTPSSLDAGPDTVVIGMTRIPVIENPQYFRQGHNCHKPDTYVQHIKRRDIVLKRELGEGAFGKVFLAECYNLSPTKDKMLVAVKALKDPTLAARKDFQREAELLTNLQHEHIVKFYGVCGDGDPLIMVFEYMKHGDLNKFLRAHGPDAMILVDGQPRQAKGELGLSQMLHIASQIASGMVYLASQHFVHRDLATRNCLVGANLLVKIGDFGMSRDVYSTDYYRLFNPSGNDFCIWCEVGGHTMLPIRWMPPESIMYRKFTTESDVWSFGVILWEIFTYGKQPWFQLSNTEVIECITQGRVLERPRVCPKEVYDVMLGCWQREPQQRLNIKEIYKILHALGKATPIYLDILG

Cc1cc2nc(NCCCO)n(CC(=O)c3cc(C(C)(C)C)c(O)c(C(C)(C)C)c3)c2cc1C
inactive: [1] 100% | [2] 81% | [3] 88% | MLCK 91% | SRPK3 87% | PRKCE 64% | MST1 90% | PIK3CD 65% | RIOK1 100% | [4] 100% | [5] 99% | [6] 100% | BMPR2 64% | CDK3 82% | [7] 95% | PIK3CG 86% | CSNK1A1L 99% | EPHB2 96% | [8] 99% | [9] 91% | [10] 67% | [11] 94% | MAP4K1 100% | CSK 100% | AAK1 100% | MAP3K3 82% | [12] 84% | DDR2 65% | NEK6 93% | [13] 100% | ABL2 85% | [14] 100% | [15]; FGFR3(G697C) 100% | [15]; FGFR3 80% | [16] 100% | [17] 100%
